The results in this text go back to paper PMC6357153 (Viruses, 2019).

Converted amounts (≈) assume the structure as drawn.

The series is described as follows: physchem.

The solubility is how much of the substance goes into solution per volume. Read a low solubility as little dissolved substance. With `CC[C@H](C)[C@H](NC(=O)[C@H](Cc1ccc(O)cc1)NC(=O)[C@H](CO)NC(=O)[C@H](CC(=O)O)NC(=O)[C@H](CC(N)=O)NC(=O)[C@H](CC(C)C)NC(=O)[C@H](CCC(N)=O)NC(=O)[C@H](CCCCN)NC(=O)[C@@H](NC(=O)[C@@H](NC(=O)[C@H](CCC(=O)O)NC(=O)[C@H](CCC(N)=O)NC(=O)[C@H](CC(C)C)NC(=O)[C@H](CCSC)NC(=O)[C@H](C)NC(=O)[C@H](CCSC)NC(=O)[C@H](CCC(=O)O)NC(=O)[C@H](CC(=O)O)NC(=O)[C@H](CO)NC(=O)[C@H](CC(C)C)NC(=O)[C@H](CC(=O)O)NC(=O)[C@H](CC(C)C)NC(=O)[C@H](CC(C)C)NC(=O)[C@@H](NC(=O)[C@@H](NC(=O)[C@H](CC(N)=O)NC(=O)[C@@H](NC(=O)[C@H](CCCCN)NC(=O)[C@H](CO)NC(=O)[C@@H](NC(=O)[C@H](CCC(=O)O)NC(=O)[C@H](C)NC(=O)[C@H](Cc1ccccc1)NC(=O)[C@H](CC(N)=O)NC(=O)[C@@H]1CCCN1C(=O)CN)[C@@H](C)CC)[C@@H](C)CC)[C@@H](C)O)[C@@H](C)O)C(C)C)C(C)C)C(=O)O` [HKU4-HR2P1], the solubility turned out to be 1570 µM (≈ 6340 µg/mL) (pH 7.2, aqueous buffer) and 651 µM (≈ 2630 µg/mL) (water).
Consider `CC[C@H](C)[C@H](NC(=O)[C@H](Cc1ccc(O)cc1)NC(=O)[C@H](CO)NC(=O)[C@H](CC(=O)O)NC(=O)[C@H](CC(N)=O)NC(=O)[C@H](CC(C)C)NC(=O)[C@H](CCC(N)=O)NC(=O)[C@H](CCCCN)NC(=O)[C@@H](NC(=O)[C@@H](NC(=O)[C@H](CCC(=O)O)NC(=O)[C@H](CCC(N)=O)NC(=O)[C@H](CC(C)C)NC(=O)[C@H](CCSC)NC(=O)[C@H](C)NC(=O)[C@H](CCSC)NC(=O)[C@H](CCC(=O)O)NC(=O)[C@H](CC(=O)O)NC(=O)[C@H](CO)NC(=O)[C@H](CC(C)C)NC(=O)[C@H](CC(=O)O)NC(=O)[C@H](CC(C)C)NC(=O)[C@H](CC(C)C)NC(=O)[C@@H](NC(=O)[C@@H](NC(=O)[C@H](CC(N)=O)NC(=O)[C@@H](NC(=O)[C@H](CCCCN)NC(=O)[C@H](CO)NC(=O)[C@@H](NC(=O)[C@@H](N)CCC(=O)O)[C@@H](C)CC)[C@@H](C)CC)[C@@H](C)O)[C@@H](C)O)C(C)C)C(C)C)C(=O)N[C@@H](CC(=O)O)C(=O)N[C@@H](CC(C)C)C(=O)N[C@@H](CCCCN)C(=O)N[C@@H](CCC(=O)O)C(=O)N[C@@H](CC(C)C)C(=O)O` [HKU4-HR2P2], for which the solubility runs as follows: (pH 7.2, aqueous buffer) 2920 µM (≈ 12100 µg/mL); (water) 150 µM (≈ 623 µg/mL).
As to `CC[C@H](C)[C@H](NC(=O)[C@H](Cc1ccc(O)cc1)NC(=O)[C@H](CO)NC(=O)[C@H](CC(=O)O)NC(=O)[C@H](CC(N)=O)NC(=O)[C@H](CC(C)C)NC(=O)[C@H](CCC(N)=O)NC(=O)[C@H](CCCCN)NC(=O)[C@@H](NC(=O)[C@@H](NC(=O)[C@H](CCC(=O)O)NC(=O)[C@H](CCC(N)=O)NC(=O)[C@H](CC(C)C)NC(=O)[C@H](CCSC)NC(=O)[C@H](C)NC(=O)[C@H](CCSC)NC(=O)[C@H](CCC(=O)O)NC(=O)[C@H](CC(=O)O)NC(=O)[C@H](CO)NC(=O)[C@H](CC(C)C)NC(=O)[C@H](CC(=O)O)NC(=O)[C@@H](N)CC(C)C)C(C)C)C(C)C)C(=O)N[C@@H](CC(=O)O)C(=O)N[C@@H](CC(C)C)C(=O)N[C@@H](CCCCN)C(=O)N[C@@H](CCC(=O)O)C(=O)N[C@@H](CC(C)C)C(=O)NCC(=O)N[C@@H](CC(N)=O)C(=O)N[C@@H](Cc1ccc(O)cc1)C(=O)N[C@H](C(=O)N[C@@H](Cc1ccc(O)cc1)C(=O)N[C@@H](Cc1ccc(O)cc1)C(=O)N[C@@H](CC(N)=O)C(=O)N[C@@H](CCCCN)C(=O)N[C@@H](Cc1c[nH]c2ccccc12)C(=O)O)[C@@H](C)O` [HKU4-HR2P3], the solubility was 118 µM (≈ 513 µg/mL) (pH 7.2, aqueous buffer) and 1670 µM (≈ 7270 µg/mL) (water).
Regarding `CC[C@H](C)[C@H](NC(=O)[C@H](Cc1ccc(O)cc1)NC(=O)[C@H](CO)NC(=O)[C@H](CCC(=O)O)NC(=O)[C@H](CC(N)=O)NC(=O)[C@H](CC(C)C)NC(=O)[C@H](C)NC(=O)[C@H](CCCCN)NC(=O)[C@@H](NC(=O)[C@@H](NC(=O)[C@H](CCC(N)=O)NC(=O)[C@H](CCC(N)=O)NC(=O)[C@H](CC(C)C)NC(=O)[C@H](CO)NC(=O)[C@H](CC(C)C)NC(=O)[C@H](CCSC)NC(=O)[C@H](CCC(=O)O)NC(=O)[C@H](Cc1ccc(O)cc1)NC(=O)[C@@H](NC(=O)[C@H](CC(C)C)NC(=O)[C@H](CC(=O)O)NC(=O)[C@H](CC(C)C)NC(=O)[C@H](CC(C)C)NC(=O)[C@@H](NC(=O)[C@@H](NC(=O)[C@H](CC(N)=O)NC(=O)[C@@H](NC(=O)[C@H](CCC(N)=O)NC(=O)[C@@H](NC(=O)[C@H](CC(C)C)NC(=O)[C@@H](N)CO)[C@@H](C)O)[C@@H](C)CC)[C@@H](C)O)[C@@H](C)O)[C@@H](C)O)C(C)C)C(C)C)C(=O)N[C@@H](CC(=O)O)C(=O)N[C@@H](CC(C)C)C(=O)N[C@@H](CCCCN)C(=O)N[C@@H](CCC(=O)O)C(=O)N[C@@H](CC(C)C)C(=O)O` [MERS-HR2P, reference compound], the solubility is 105 µM (≈ 435 µg/mL) (pH 7.2, aqueous buffer) and 29 µM (≈ 120 µg/mL) (water).
